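Protocol summary: plate cells (96-well), add compound at 5 concentrations, incubate 48 h, interpolate endpoints linearly. GI50: concentration for 50% inhibition of growth. At the TGI there is no net growth.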
Key:
Assay in all cases: growth of human tumour cells (NCI), 48 h
SW-620 colon = tested on: SW-620 colon
UACC-62 melanoma = tested on: UACC-62 melanoma
SNB-19 CNS = tested on: SNB-19 CNS
DU-145 prostate = tested on: DU-145 prostate
CCRF-CEM leukemia = tested on: CCRF-CEM leukemia
OVCAR-3 ovarian = tested on: OVCAR-3 ovarian
A498 renal = tested on: A498 renal
MALME-3M melanoma = tested on: MALME-3M melanoma
HOP-92 NSCLC = tested on: HOP-92 NSCLC
ACHN renal = tested on: ACHN renal
HOP-62 NSCLC = tested on: HOP-62 NSCLC
HCT-15 colon = tested on: HCT-15 colon
HT29 colon = tested on: HT29 colon
HS 578T breast = tested on: HS 578T breast
786-0 renal = tested on: 786-0 renal
T-47D breast = tested on: T-47D breast
K-562 leukemia = tested on: K-562 leukemia
RPMI-8226 leukemia = tested on: RPMI-8226 leukemia
TK-10 renal = tested on: TK-10 renal
EKVX NSCLC = tested on: EKVX NSCLC
SF-268 CNS = tested on: SF-268 CNS
SN12C renal = tested on: SN12C renal
SK-MEL-28 melanoma = tested on: SK-MEL-28 melanoma
BT-549 breast = tested on: BT-549 breast
NCI-H23 lung = tested on: NCI-H23 lung
OVCAR-8 ovarian = tested on: OVCAR-8 ovarian
SK-MEL-5 melanoma = tested on: SK-MEL-5 melanoma
OVCAR-4 ovarian = tested on: OVCAR-4 ovarian
SF-295 CNS = tested on: SF-295 CNS
LOX IMVI melanoma = tested on: LOX IMVI melanoma
SK-OV-3 ovarian = tested on: SK-OV-3 ovarian
MOLT-4 leukemia = tested on: MOLT-4 leukemia
SK-MEL-2 melanoma = tested on: SK-MEL-2 melanoma
MDA-MB-231 breast = tested on: MDA-MB-231 breast
NCI-H460 lung = tested on: NCI-H460 lung
M14 melanoma = tested on: M14 melanoma
UACC-257 melanoma = tested on: UACC-257 melanoma
OVCAR-5 ovarian = tested on: OVCAR-5 ovarian
U251 CNS = tested on: U251 CNS
RXF 393 renal = tested on: RXF 393 renal
KM12 colon = tested on: KM12 colon
NCI-H522 lung = tested on: NCI-H522 lung
A549 NSCLC = tested on: A549 NSCLC
SF-539 CNS = tested on: SF-539 CNS
MDA-MB-435 = tested on: MDA-MB-435
COLO 205 colon = tested on: COLO 205 colon
NCI/ADR-RES ovarian = tested on: NCI/ADR-RES ovarian
SR leukemia = tested on: SR leukemia
UO-31 renal = tested on: UO-31 renal
MCF7 breast = tested on: MCF7 breast
HCT-116 colon = tested on: HCT-116 colon
PC-3 prostate = tested on: PC-3 prostate

C=C1C(O)C2C(=C(CC(C)C)C13CC3)C(=O)C(C)(C)C2OC (centres undefined)
GI50 (SW-620 colon): > 100 µM
TGI (SW-620 colon): > 100 µM
GI50 (UACC-62 melanoma): > 100 µM
TGI (UACC-62 melanoma): > 100 µM
GI50 (SNB-19 CNS): > 100 µM
TGI (SNB-19 CNS): > 100 µM
GI50 (DU-145 prostate): > 100 µM
TGI (DU-145 prostate): > 100 µM
GI50 (CCRF-CEM leukemia): 86.6 µM
TGI (CCRF-CEM leukemia): > 100 µM
GI50 (OVCAR-3 ovarian): > 100 µM
TGI (OVCAR-3 ovarian): > 100 µM
GI50 (A498 renal): > 100 µM
TGI (A498 renal): > 100 µM
GI50 (MALME-3M melanoma): > 100 µM
TGI (MALME-3M melanoma): > 100 µM
GI50 (HOP-92 NSCLC): 97 µM
TGI (HOP-92 NSCLC): > 100 µM
GI50 (ACHN renal): > 100 µM
TGI (ACHN renal): > 100 µM
GI50 (HOP-62 NSCLC): > 100 µM
TGI (HOP-62 NSCLC): > 100 µM
GI50 (HCT-15 colon): > 100 µM
TGI (HCT-15 colon): > 100 µM
GI50 (HT29 colon): > 100 µM
TGI (HT29 colon): > 100 µM
GI50 (HS 578T breast): > 100 µM
TGI (HS 578T breast): > 100 µM
GI50 (786-0 renal): > 100 µM
TGI (786-0 renal): > 100 µM
GI50 (T-47D breast): > 100 µM
TGI (T-47D breast): > 100 µM
GI50 (K-562 leukemia): 81.5 µM
TGI (K-562 leukemia): > 100 µM
GI50 (RPMI-8226 leukemia): 65.3 µM
TGI (RPMI-8226 leukemia): > 100 µM
GI50 (TK-10 renal): > 100 µM
TGI (TK-10 renal): > 100 µM
GI50 (EKVX NSCLC): > 100 µM
TGI (EKVX NSCLC): > 100 µM
GI50 (SF-268 CNS): > 100 µM
TGI (SF-268 CNS): > 100 µM
GI50 (SN12C renal): > 100 µM
TGI (SN12C renal): > 100 µM
GI50 (SK-MEL-28 melanoma): > 100 µM
TGI (SK-MEL-28 melanoma): > 100 µM
GI50 (BT-549 breast): > 100 µM
TGI (BT-549 breast): > 100 µM
GI50 (NCI-H23 lung): > 100 µM
TGI (NCI-H23 lung): > 100 µM
GI50 (OVCAR-8 ovarian): > 100 µM
TGI (OVCAR-8 ovarian): > 100 µM
GI50 (SK-MEL-5 melanoma): > 100 µM
TGI (SK-MEL-5 melanoma): > 100 µM
GI50 (OVCAR-4 ovarian): > 100 µM
TGI (OVCAR-4 ovarian): > 100 µM
GI50 (SF-295 CNS): > 100 µM
TGI (SF-295 CNS): > 100 µM
GI50 (LOX IMVI melanoma): > 100 µM
TGI (LOX IMVI melanoma): > 100 µM
GI50 (SK-OV-3 ovarian): > 100 µM
TGI (SK-OV-3 ovarian): > 100 µM
GI50 (MOLT-4 leukemia): 24.2 µM
TGI (MOLT-4 leukemia): 66.8 µM
GI50 (SK-MEL-2 melanoma): > 100 µM
TGI (SK-MEL-2 melanoma): > 100 µM
GI50 (MDA-MB-231 breast): > 100 µM
TGI (MDA-MB-231 breast): > 100 µM
GI50 (NCI-H460 lung): > 100 µM
TGI (NCI-H460 lung): > 100 µM
GI50 (M14 melanoma): > 100 µM
TGI (M14 melanoma): > 100 µM
GI50 (UACC-257 melanoma): > 100 µM
TGI (UACC-257 melanoma): > 100 µM
GI50 (OVCAR-5 ovarian): > 100 µM
TGI (OVCAR-5 ovarian): > 100 µM
GI50 (U251 CNS): > 100 µM
TGI (U251 CNS): > 100 µM
GI50 (RXF 393 renal): > 100 µM
TGI (RXF 393 renal): > 100 µM
GI50 (KM12 colon): > 100 µM
TGI (KM12 colon): > 100 µM
GI50 (NCI-H522 lung): > 100 µM
TGI (NCI-H522 lung): > 100 µM
GI50 (A549 NSCLC): > 100 µM
TGI (A549 NSCLC): > 100 µM
GI50 (SF-539 CNS): > 100 µM
TGI (SF-539 CNS): > 100 µM
GI50 (MDA-MB-435): > 100 µM
TGI (MDA-MB-435): > 100 µM
GI50 (COLO 205 colon): > 100 µM
TGI (COLO 205 colon): > 100 µM
GI50 (NCI/ADR-RES ovarian): > 100 µM
TGI (NCI/ADR-RES ovarian): > 100 µM
GI50 (SR leukemia): 82.9 µM
TGI (SR leukemia): > 100 µM
GI50 (UO-31 renal): > 100 µM
TGI (UO-31 renal): > 100 µM
GI50 (MCF7 breast): > 100 µM
TGI (MCF7 breast): > 100 µM
GI50 (HCT-116 colon): 81.5 µM
TGI (HCT-116 colon): > 100 µM
GI50 (PC-3 prostate): > 100 µM
TGI (PC-3 prostate): > 100 µM

Reference: PubChem BioAssay (NCI)
